This is an account of results in article PMC9399641, “Inhibition mechanism of alpha-amylase, a diabetes target, by a steroidal pregnane and pregnane glycosides derived from Gongronema latifolium Benth” (Frontiers in Molecular Biosciences, 2022).

Experiment [1] deals with T1, alpha-amylase from porcine pancreas (Sus scrofa, UniProt P00690).
T1 sequence (P00690 16-511): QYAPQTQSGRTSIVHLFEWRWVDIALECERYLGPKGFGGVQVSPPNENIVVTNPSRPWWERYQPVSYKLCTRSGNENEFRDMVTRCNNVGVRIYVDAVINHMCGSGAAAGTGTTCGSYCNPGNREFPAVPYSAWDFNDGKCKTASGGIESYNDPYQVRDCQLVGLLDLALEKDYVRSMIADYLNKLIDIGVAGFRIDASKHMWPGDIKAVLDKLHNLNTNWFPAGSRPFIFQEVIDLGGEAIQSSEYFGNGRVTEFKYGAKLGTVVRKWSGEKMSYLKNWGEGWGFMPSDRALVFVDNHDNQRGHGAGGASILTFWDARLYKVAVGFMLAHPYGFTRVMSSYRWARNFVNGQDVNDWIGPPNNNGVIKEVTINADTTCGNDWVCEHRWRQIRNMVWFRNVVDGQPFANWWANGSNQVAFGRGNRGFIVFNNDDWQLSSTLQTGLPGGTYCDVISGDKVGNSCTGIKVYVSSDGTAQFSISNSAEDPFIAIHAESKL
The experiment can be described thus: alpha-amylase inhibition assay (DNSA method). The experiment is classed as biochemical. The following applies: for LogIC50: isolated compounds and acarbose, log of IC50 in uM. The procedure:
Varying concentrations of the pregnane-rich fractions (40–200 μg/ml) and those of the isolated compounds (10–50 μg/ml) were prepared in DMSO. Briefly, 100 μL of the test substance was reacted with 200 μl of alpha-amylase (alpha-amylase from porcine pancreas, EC 3.2.1.1, type VI, Sigma) and 100 μl of […] phosphate buffer (pH 6.9) of 0.02 M sodium phosphate (pH 6.9). Subsequent to incubation for 20 min, 100 μL of 1% starch substrate was added. Blank controls where the enzyme was replaced with the buffer were also prepared alongside. Following incubation of the reaction mixture for 5 min, 500 μl of dinitrosalicylic acid reagent was mixed with the control and the test. These were kept in a water bath at a boiling temperature for 5 min.
The half-maximal inhibitory concentration (IC50) values were determined by fitting inhibition parameters with standard log inhibitor vs. normalized response models using nonlinear regression as described by [Buchwald (2020)].

Another experiment has as its system albino rats. The experiment is described as follows: oral starch tolerance test. The following applies: for PBG / % reduction of AUC / % reduction of PBG / AUC: 3.0 g/kg starch; for PBG / AUC: mean ± SEM n = 4; for % reduction of AUC / % reduction of PBG: vs control; for blood glucose level: oral, starch-challenged rats; for AUC: blood glucose 0-120 min. It counts as in vivo. As to the method: The animal study was reviewed and approved by the University Ethical Review Committee of the University of Ilorin (Protocol Identification Code: UERC/LSC/183). An oral starch tolerance test was carried out as described in a previous study ([Poovitha and […], 2016]). […] After 10 min, the blood glucose level was estimated (0 min), and the rats were orally administered with 3.0 g/kg starch. Then, the blood glucose level was estimated at 30, 60, and 120 min after the administration using a glucometer. Peak blood glucose (PBG) was determined by observing the blood glucose level during the previously mentioned time intervals, and the area under the curve (AUC) was calculated.

Like-named read-outs stand apart in the source and are kept apart here. Marks after values point to notes of the source that are not given here.

`C[C@H]1O[C@H](O[C@H]2[C@H](O)[C@@H](O)[C@@H](O[C@H]3[C@H](O)[C@@H](O)C(O)O[C@@H]3CO)O[C@@H]2CO)[C@H](O)[C@@H](O)[C@@H]1N[C@H]1C=C(CO)[C@@H](O)[C@H](O)[C@H]1O` (some centres unmarked) [Acarbose, acarbose, reference compound]: in experiment [1] (in words, fractions 40–200 μg/ml, compounds 10–50 μg/ml), the “percentage inhibitory activity on porcine alpha-amylase” value is listed as “greatest inhibition effects”. Besides, in the experiment with albino rats (10 mg/kg oral), the PBG was 2.85 ± 0.05^ab mmol/L, the “% reduction of AUC” value worked out at 7.00% and the “% reduction of PBG” value came out at 20.83%. Moreover, the blood glucose level entry in the experiment on albino rats (in words) was “significant decrease”.
The IC50 is the point on the concentration scale where inhibition reaches its midpoint. For `CC(O)[C@H]1CC[C@@]2(O)[C@]1(C)[C@H](O)[C@@H](O)[C@@H]1[C@@]3(C)CC[C@H](O)CC3=CC[C@]12O` (some centres unmarked) [P1, marsectohexol], the LogIC50 in experiment [1] was determined as 1.000. In experiment [1] (read-out: IC50), the concentration for half-maximal inhibition (IC50) worked out at 10 µM. In the experiment with albino rats (10 mg/kg oral), the AUC was found to be 883.5 ± 19.50 mmol·min/L, the PBG is 2.90 ± 0.10^ab mmol/L, the “% reduction of AUC” value stood at 6.36% and the “% reduction of PBG” value is given as 19.44%. In the experiment on albino rats (20 mg/kg oral), the AUC stood at 699.0 ± 48.0 mmol·min/L, the PBG is listed as 2.15 ± 0.45^b mmol/L and the “% reduction of AUC” value stood at 25.91%. The “peak blood glucose (PBG) and area under the curve (AUC)” value in the experiment on albino rats (20 mg/kg oral, after starch loading, in words) was “significantly reduced”. Besides, the blood glucose level result with albino rats (in words) is on record as “significantly reduced”. For the same compound, the blood glucose level entry in the experiment with albino rats (in words, listed as marsectohexol) is “significant decrease”.
`CC=C(C)C(=O)OC1C2C3(C)CCC(OC4CC(OC)C(OC5OC(C)C(O)C(OC)C5O)C(C)O4)CC3=CCC2(O)C2(O)CCC(C(C)=O)C2(C)C1OC(=O)C(C)=CC` [P2, 3-O-[6-deoxy-3-O-methyl-β-D-allopyranosyl-(1→14)-β-D-oleandropyranosyl]-11,12-di-O-tigloyl-17β-marsdenin]: in experiment [1], the IC50 stood at 12.1 µM and the LogIC50 is listed as 1.083.
In experiment [1], `COC1CC(OC2CCC3(C)C(=CCC4(O)C3C(O)C(O)C3(C)C(C(C)=O)CCC43O)C2)OC(C)C1OC1OC(C)C(O)C(OC)C1O` [P3, 3-O-[6-deoxy-3-O-methyl-β-D-allopyranosyl-(1→4)-β-D-oleandropyranosyl]-17β-marsdenin] displayed a concentration for half-maximal inhibition (IC50) of 14 µM and a LogIC50 of 1.147.
For `COC1C(O)C(C)OC(OC2C(O)CC(OC3CCC4(C)C(=CCC5(O)C4C(O)C(O)C4(C)C(C(C)=O)CCC54O)C3)OC2C)C1O` [P4, 3-O-[6-deoxy-3-O-methyl-β-D-allopyranosyl-(1→4)-β-D-canaropyranosyl]-17β-marsdenin], in experiment [1], the LogIC50 is on record as 1.137. In addition, the half-maximal inhibitory concentration (IC50) in experiment [1] (read-out: IC50) came out at 13.7 µM.
